# Measured values from ChEMBL document CHEMBL1201862, “PubChem BioAssay data set” (2004).
# Calls of active or inactive are those of the source.
# Key:
# [1] = T. cruzi intracellular amastigote growth inhibition, dose response, imaging, CA-I/72 strain, bovine embryo skeletal muscle, dry powder (AID 651885); format: functional, cell-based
# [2] = P. falciparum Dd2 growth inhibitors, dose response, SYBR Green, cherry-picked samples (AID 1159567); format: functional, cell-based
# [3] = HepG2 cell cytotoxicity, dose response, cytotoxicity control, cherry-picked samples (AID 1159577); format: functional, cell-based
# [4] = molecular target: T1, RNA-binding protein pos-1 (Caenorhabditis elegans, UniProt G5EF15); assay: inhibitors of POS-1/mex-3 RNA binding, dose response, biochemical, fluorescence polarization (AID 1964);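 note: purified POS-1 fused to maltose binding protein made in E. coli; potency of compounds blocking POS-1 binding to fluorescent RNA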
# T1 sequence (G5EF15 whole entry): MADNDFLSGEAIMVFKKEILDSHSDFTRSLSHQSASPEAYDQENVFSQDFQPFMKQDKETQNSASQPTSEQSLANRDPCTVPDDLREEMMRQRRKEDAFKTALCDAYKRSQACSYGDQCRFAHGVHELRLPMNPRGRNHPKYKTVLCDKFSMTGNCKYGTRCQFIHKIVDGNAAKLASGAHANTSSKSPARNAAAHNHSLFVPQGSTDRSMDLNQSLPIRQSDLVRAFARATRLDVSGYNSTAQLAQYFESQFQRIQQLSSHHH
# [5] = molecular target: T2, Zinc finger protein mex-5 (Caenorhabditis elegans, UniProt Q9XUB2); assay: MEX-5/TCR-2 RNA interaction inhibitors, dose response, biochemical, C. elegans, fluorescence polarization (AID 1960)
# T2 sequence (Q9XUB2 whole entry): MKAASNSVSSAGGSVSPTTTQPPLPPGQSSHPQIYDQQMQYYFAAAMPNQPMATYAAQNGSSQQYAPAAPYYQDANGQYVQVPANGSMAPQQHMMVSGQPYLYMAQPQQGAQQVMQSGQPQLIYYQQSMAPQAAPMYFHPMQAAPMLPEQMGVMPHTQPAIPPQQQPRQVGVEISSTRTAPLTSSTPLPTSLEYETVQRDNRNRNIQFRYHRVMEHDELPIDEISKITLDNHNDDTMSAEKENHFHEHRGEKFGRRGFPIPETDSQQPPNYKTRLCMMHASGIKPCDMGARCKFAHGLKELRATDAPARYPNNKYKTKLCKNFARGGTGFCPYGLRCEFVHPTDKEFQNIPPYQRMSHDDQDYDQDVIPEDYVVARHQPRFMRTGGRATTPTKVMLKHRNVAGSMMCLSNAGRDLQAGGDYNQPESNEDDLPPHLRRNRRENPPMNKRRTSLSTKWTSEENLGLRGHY
# [6] = Luminescence-based cell-based high throughput dose response assay to identify activators of the DAF-12 from the parasite S. stercoralis (ssDAF-12).; format: functional
# [7] = molecular target: T3, Oxysterols receptor LXR-beta (Homo sapiens, UniProt P55055); assay: LXR agonists, Gal4 luciferase reporter, dose response, counter-screen for ssDAF-12 agonist project, cell-based, luminescence, HEK293, S. stercoralis campaign (AID 720737); format: functional; conditions: read-out: IC50 (the source's name)
# T3 sequence (P55055 whole entry): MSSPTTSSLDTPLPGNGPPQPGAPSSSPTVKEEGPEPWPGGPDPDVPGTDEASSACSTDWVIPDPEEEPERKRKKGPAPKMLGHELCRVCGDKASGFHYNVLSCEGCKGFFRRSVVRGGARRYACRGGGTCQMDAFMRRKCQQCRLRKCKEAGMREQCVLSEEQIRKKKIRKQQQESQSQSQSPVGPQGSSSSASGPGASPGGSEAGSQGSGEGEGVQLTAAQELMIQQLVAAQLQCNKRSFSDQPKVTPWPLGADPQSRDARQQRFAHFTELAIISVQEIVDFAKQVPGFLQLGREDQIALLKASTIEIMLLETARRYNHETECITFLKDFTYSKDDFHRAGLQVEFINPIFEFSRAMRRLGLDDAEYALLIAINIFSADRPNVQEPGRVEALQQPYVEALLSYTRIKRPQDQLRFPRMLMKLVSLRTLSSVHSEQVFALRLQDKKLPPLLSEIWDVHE
# [8] = molecular target: Major prion protein (Homo sapiens, UniProt P04156); format: functional, cell-based
# [9] = cells
# [10] = molecular target: Luciferin 4-monooxygenase (Photinus pyralis, UniProt P08659); assay: firefly luciferase enzyme inhibitors, dose response, biochemical, luminescence (AID 1891)
# [11] = Luminescence Cell-Based Dose Confirmation HTS to Identify Inhibitors of Platelet Dense Granule Release. [Related pubchem assays: 1663 (Primary HTS), 1678 (Summary of Project)]; format: functional
# [12] = molecular target: T4, Protein skinhead-1 (Caenorhabditis elegans, UniProt P34707); format: functional
# T4 sequence (P34707 whole entry): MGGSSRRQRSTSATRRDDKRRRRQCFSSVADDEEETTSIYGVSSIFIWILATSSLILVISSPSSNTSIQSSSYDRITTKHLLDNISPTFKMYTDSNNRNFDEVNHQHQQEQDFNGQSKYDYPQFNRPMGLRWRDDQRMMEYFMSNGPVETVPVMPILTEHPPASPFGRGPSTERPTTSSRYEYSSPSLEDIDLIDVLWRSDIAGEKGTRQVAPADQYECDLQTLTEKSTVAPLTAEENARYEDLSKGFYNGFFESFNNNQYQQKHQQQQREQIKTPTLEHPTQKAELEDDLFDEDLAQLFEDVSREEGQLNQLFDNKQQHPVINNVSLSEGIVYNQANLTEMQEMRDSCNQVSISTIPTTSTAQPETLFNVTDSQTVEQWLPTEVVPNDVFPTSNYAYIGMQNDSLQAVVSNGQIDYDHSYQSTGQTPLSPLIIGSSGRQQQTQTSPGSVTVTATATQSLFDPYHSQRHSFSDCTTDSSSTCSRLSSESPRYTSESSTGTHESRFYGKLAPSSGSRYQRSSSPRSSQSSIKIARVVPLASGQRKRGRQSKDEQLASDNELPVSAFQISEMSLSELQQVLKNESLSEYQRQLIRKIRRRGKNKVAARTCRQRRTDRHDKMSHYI
# [13] = HepG2 cell cytotoxicity, dose response, cytotoxicity control, plate reader, cherry-pick, antagonist series (AID 743416); format: functional, cell-based
# [14] = LGR2 antagonists, dose response, cell-based, HEK293, CRE-luciferase reporter, cherry pick, set 2 (AID 743343); format: functional;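 note: transfected cells were stimulated with diluted bursicon conditioned medium after compound addition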
# [15] = MC4R antagonists, dose response, counter-screen for LGR2 antagonist project, cell-based, plate reader, cherry pick (AID 743444); format: functional;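 note: transfected HEK 293 cells stimulated with alpha-MSH peptide; potency of inhibitors of the alpha-MSH evoked signal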
# [16] = molecular target: T3, Oxysterols receptor LXR-beta; format: functional, cell-based
# [17] = cells; remark: listed apart in the source
# [18] = molecular target: fMet-Leu-Phe receptor (Homo sapiens, UniProt P21462); assay: FPR ligands, dose response (AID 519); format: functional
# [19] = molecular target: Genome polyprotein (dengue virus type 2, UniProt P29990); assay: Dengue-2 NS5 methyltransferase inhibitors, primary screen, biochemical, confirmation dose response (AID 588689); format: functional
# [20] = molecular target: Protein Tat (Human immunodeficiency virus type 1 group M subtype B (isolate HXB2)(HIV-1), UniProt P04608); format: functional;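 note: tat binding to TAR RNA read out by fluorescence polarization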
# [21] = HEK293T cytotoxicity, dose response, cytotoxicity control for miR-122 modulator project, cell-based, activator set, cherry-pick (AID 720690); format: functional;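 note: HEK293T human cells scored for general mammalian cytotoxicity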
structure (smiles),measurement,setting,value
CC(C)N1C[C@H](C)[C@@H](CN(C)C(=O)OC(C)(C)C)Oc2c(NC(=O)c3cccnc3)cccc2C1=O,IC50,[1],> 20 µM (inactive)
COc1cc(CN2C[C@@H]3N[C@H](C2)[C@@H]3c2ccc(-c3ccc(C#N)cc3)cc2)cc(OC)c1,AC50,[2],3.05 µM (active)
same,AC50,[3],10.5 µM (active)
O=C(O)C(=O)/C(=C\c1ccsc1)c1ccc2ccccc2n1,EC50,[4],27.9 µM (active)
same,EC50,[5],49 µM (active)
same,IC50,[6],> 67.6 µM (inactive)
same,EC50,[7],> 67.6 µM (inactive)
CCc1nc(SCC(=O)OC(C)C)c2ccccc2n1,IC50,[8],2.38 µM (active)
same,IC50,[9],> 138 µM (inactive)
Cc1ccc(-c2noc(-c3cccs3)n2)cc1,EC50,[10],3.98 µM (active)
same,EC50,[11],> 112 µM (not active)
same,IC50,[12],18.8 µM (active)
same,AC50,[13],> 52 µM (inactive)
same,AC50,[14],14.4 µM (active)
same,AC50,[15],22.3 µM (active)
same,EC50,[16],> 67.5 µM (inactive)
same,EC50,[17],> 67.5 µM (inactive)
COc1ccc(-c2nc(-c3ccc(Br)o3)no2)cc1OC,Ki,[18],> 66.7 µM (inactive)
Cc1ccc(CNC2=Nc3ccccc3CS2)cc1,EC50,[16],> 67.5 µM (inactive)
same,EC50,[17],> 67.5 µM (inactive)
CO[C@H]1CN(C)C(=O)c2ccc(NC(=O)c3ccc(Oc4ccccc4)cc3)cc2OC[C@H](C)NC[C@H]1C,AC50,[2],6.48 µM (active)
same,AC50,[3],11.7 µM (active)
O=C(O)c1ccc(-n2nc(C(F)(F)F)c3c2-c2ccoc2CC3)cc1,IC50,[19],89 µM (active)
same,IC50,[20],> 100 µM (active)
COc1ccc(C#Cc2ccc3c(c2)O[C@H](CN(C)C(=O)CN2CCOCC2)[C@@H](C)CN([C@@H](C)CO)S3(=O)=O)cc1,AC50,[21],43.2 µM (active)
